According to ChEMBL document CHEMBL5728204, “Spiro[3H-indole-3,2′-pyrrolidin]-2(1H)-one compounds and derivatives as MDM2-P53 inhibitors” (2021):
“And” between values parts separate entries of the source, which are not always exact repeats. Equal entries are not always repeated.

Experiment: A mix consisting of 20 nM GST-MDM2 protein (aa 23-117) and 20 nM biotinylated p53 wt peptide (encompassing aa 16-27 of wt human p53, amino acid sequence QETFSDLWKLLP-Ttds-Lys-Biotin, molecular weight 2132.56 g/mol) is prepared in assay buffer (50 mM Tris/HCl pH 7.2; 120 mM NaCl; 0.1% bovine serum albumin (BSA); 5 mM dithiothreitol (DTT); 1 mM ethylenediaminetetraacetic acid (EDTA); 0.01% Tween 20). 30 μL of the mix is added to the compound dilutions and incubated for 15 min at rt while gently shaking the plate at 300 rounds per minute (rpm). Subsequently, 15 μL of premixed AlphaLISA Glutathione Acceptor Beads and AlphaScreen Streptavidin Donor Beads from PerkinElmer (in assay buffer at a concentration of 10 μg/mL each) are added and the samples are incubated for 30 min at rt in the dark (shaking 300 rpm). Afterwards, the signal is measured in a PerkinElmer Envision HTS Multilabel Reader using the AlphaScreen protocol from PerkinElmer.Each plate contains negative controls where biotinylated p53-peptide and GST-MDM2 are left out and replaced by assay buffer. Negative control values are entered as low basis value when using the software GraphPad Prism for calculations.

IC50	SMILES
15 nM	CC(=O)Nc1ccc2c(c1)nc1n2CC[C@H]2[C@@H]1[C@H](c1cccc(Cl)c1F)[C@]1(C(=O)Nc3cc(Cl)ccc31)N2C(C)C1CC1 (some centres undefined)
12 nM and 7 nM	CC(C1CC1)N1[C@H]2CCn3c(nc4cc(S(C)(=O)=O)ccc43)[C@H]2[C@H](c2cccc(Cl)c2F)[C@]12C(=O)Nc1cc(Cl)ccc12 (some centres undefined)
3 nM	COC(=O)c1ccc2c(c1)nc1n2CC[C@H]2[C@@H]1[C@H](c1cccc(Cl)c1F)[C@]1(C(=O)Nc3cc(Cl)ccc31)N2CC1CC1

SMILES	IC50
CS(=O)(=O)OCCN1[C@H]2CCn3c(nc4cc(C(=O)O)ccc43)[C@H]2[C@H](c2cccc(Cl)c2F)[C@]12C(=O)Nc1cc(Cl)ccc12	58 nM
